Data set [1] concerns skin stripped wounds infected with Pseudomonas aeruginosa (ATCC 27853). Put plainly: Histological assessment of tape-stripped, infected mouse skin wound (Example 6). As to conditions: for tissue repair as evidenced by histology: two different doses.
The test system of a further data set is P. acnes. The class given is cell-based. Conditions: disc diffusion. (In general: Agar diffusion results depend on both activity and mobility in agar.)
Data set [2] concerns IGF-1. As to the kind of experiment: Growth hormone levels in stripped mouse skin by ELISA (Example 5). The format is in vivo. As to conditions: 25 mM; stripped and infected mice skin; 48 hours. On the procedure:
(§1) Four different conditions were used: mice had back skin tape stripped and the stripped site (wound) was infected with P. aeruginosa; mice had back skin stripped and were not infected, mice had taped stripped, infected and treated with PCA, mice were tape stripped, uninfected, and treated with PCA. When used, the PCA test reagent was applied topically in an aqueous solution on the stripped site at two hours and 24 hours.
(§2) The testing reagents consisted of and PCA formulated at one dose, 25 mM, in an aqueous solution. Levels of IGF-1, TGF-β, and EGF levels in the skin tissue at 48 hours were measured by ELISA. There were two control groups: the stripped skin and the stripped skin and infected.
Background: In an ELISA, binding on a coated surface is turned into a signal by an enzyme label.

Data set [3] in a line: Solubility and hydrophilic-lipophile balance. The class given is physicochemical.
In data set [4] the test system is P. aeruginosa (ACTA 27853). The class given is in vivo. Conditions: for kill of Pseudomonas aeruginosa: both reagents and dose; for dose with most significant decrease of bacteria: day two and four; for bactericidal on stripped skin wound: 48 to 96 hours.
The next data set deals with Pseudomonas aeruginosa. The format is cell-based. Conditions: disc diffusion.
Data set [5] relates to P. aeruginosa (ACTA 9027). The format is in vivo. As to conditions: day five; for bacterial burden: topical 50, 100, 200 mM in water, none statistically significant; for most effective dose: topical, aqueous.
For data set [6] the following is noted: upon ingestion; cited from earlier work.
A further data set has as its system eye tissues. As to the kind of experiment: Irritation of eye tissues.
Data set [7] has as its system EGF. As to the kind of experiment: Growth hormone levels in stripped mouse skin by ELISA (Example 5). The format is in vivo, mice. Conditions: 25 mM, infected and treated wound, 48 hours. How it is done:
as §1, §2

The subject of the next data set is Candida albicans. The class given is cell-based. Conditions: disc diffusion. From the text:
This example describes the method for testing the antimicrobial susceptibility of anthocyanins, anthocyanidins, or metabolites and compounds thereof. The Kirby-Bauer method of disc diffusion was used for testing, following a standard set of procedures recommended by the NCCLS. In this methodology, a set of discs saturated with either testing compounds or a control was placed on inoculated agar plates. The plates were inoculated with organisms including C. difficile, P. acnes, C. prefringens, L. casei, C. albicans, E. coli, ATTC 8739 and ATCC 43895, S. aureus, S. mutans, S. pyogenes, P. aeruginosa and K. pneumonia. The control sample was amoxicillin, an antimicrobial with very effective broad-spectrum antibiotic properties. Samples included delphinidin, pelargonidin, cyanidin CI, 28% cyanindin-3-glucoside (C3G), protocatechuic acid (PCA) and 2,4,6 Trihydroxybenzaldehyde (2,4,6 THBA).
After 18, 24, or 48 hours of incubation, depending upon the microorganism, each plate was examined. The diameters of the zones of complete inhibition were measured, including the diameter of the disc. Zones were measured to the nearest millimeter, using sliding calipers. The size of the zones of inhibition was interpreted by referring to NCCLS standard. […]

The subject of data set [8] is IGF-1. As to the kind of experiment: Local growth hormone levels in normal mouse skin (Example 4). The class given is in vivo, mice. As to conditions: 100 μM topical, normal rodent skin. On the procedure:
(§3) Mice were shaved but unstrapped and uninfected (normal rodent skin). The test reagents were applied topically in an aqueous solution on the unstripped site at two hours and daily on day 1, 2 and 3. Testing reagents consisted of […] and PCA formulated at one dose, 100 μM in an aqueous solution.

For another data set, the system named is TGF-β. The description is as above. The format is in vivo, mice. As to conditions: 100 μM topical, normal rodent skin. How it is done:
as §3

For data set [9], the system named is EGF. The data set is described as above. The format is in vivo, mice. As to conditions: 100 μM topical, normal rodent skin. How it is done:
as §3

Where [10] appears, read: 48 and 96 hours, topical, aqueous.

Consider three molecules from patent US11951087B2, “Eye wash compositions and methods” (priority 2021, dated 2024).

Several values for one entry are separate records, joined by “and”; a condition that tells them apart may be missing. Equal entries are not always repeated. Entries after “also recorded” stand apart in the source; their conditions may differ. Where two headings read alike, the source gives them in different places.

With `O=C(O)c1ccc(O)c(O)c1` [PCA, protocatechuic acid], in data set [1] (25 mM, 48 hours), the “collagen between epidermis and dermis” value is listed as “collagen proliferation; also recorded: collagen layer formation”; the dermal layer thickness result was “thickened”; the hair follicles result is on record as “prominent with multiple cellular lining”; the inflammation result is “abundant inflammation”. Also, in data set [1] (25 mM, 48 hours), the surface cellularity result was “abundant and multiple cell layers”; the vascularity entry is “moderate vascularity”. Besides, in data set [1] (50 mM, 48 hours), the dermal layer thickness result was “thicker”; the hair follicles result is given as “double layer of cells”; the inflammation entry is “increased in the dermis and below the muscle layer”; the surface cellularity entry was “covered with multiple layers of cells”. Further, in data set [1] (50 mM, 48 hours), the vascularity result was “increased vascularity”. The “tissue repair as evidenced by histology” value in [1] is “stimulated tissue repair”. In the data set on P. acnes, the “bactericidal against P. acnes” value is recorded as “bactericidal” and the “susceptibility of P. acnes” value is “susceptible”. Also, the IGF-1 production entry in the data set on IGF-1 [2] is “optimizes the IGF-1 production”. In addition, the “solubility in a lens care solution” value in data set [3] is reported as “soluble”. Further, the “statistical significance of bacterial burden reduction” value in [4] (25 mM, 48 hours) was “statistically significant”. The bacterial burden result in data set [4] (25 mM, both time periods (48 and 96 hours)) was “reduced the bacterial burden”. The bacterial burden result in data set [4] (setting [10]) was “decreased the bacterial burden”. Further, the “kill of Pseudomonas aeruginosa” value in [4] (48 hours) was 10,000 fold. For the same molecule, the “dose with most significant decrease of bacteria” value in data set [4] worked out at 25 mM. In [4] (topical), the “bactericidal on stripped skin wound” value is on record as “bactericidal”. The “effect on Pseudomonas aeruginosa” value in the data set with Pseudomonas aeruginosa is listed as “some effectiveness”. In addition, in data set [5], the bacterial burden result is reported as “decreased the bacterial burden” and the most effective dose is recorded as 50 mM. Further, in [6], the “duration in the body” value was 8 h; the route of elimination entry was “via the urine and feces”; the “time of peak amount” value is 2 h. The “irritation of eye tissues” value in the data set on eye tissues was “non-irritating”. Moreover, the EGF response level result in the data set with EGF [7] was “lowest”. For the same molecule, the “susceptibility of Candida albicans” value in the data set on Candida albicans is listed as “susceptible”.
In the case of `OC[C@H]1O[C@@H](Oc2cc3c(O)cc(O)cc3[o+]c2-c2ccc(O)c(O)c2)[C@H](O)[C@@H](O)[C@@H]1O` [C3G, Cyanidin 3-glucoside], in [1] (100 mM, 48 hours), the dermal layer thickness result is reported as “thicker”; the hair follicles result is “single and double cellular lining”; the inflammation entry is “inflammation in the dermis and muscular layer and below”; the surface cellularity result was “multiple cellular covering”. For the same molecule, in [1] (100 mM, 48 hours), the vascularity result is “prominent”. Besides, in [1] (200 mM, 48 hours), the dermal layer thickness entry was “thickened”; the hair follicles entry was “single and double cellular lining”; the inflammation entry was “inflammation in the dermis and muscular layer”; the surface cellularity result is recorded as “multiple cells thick”. The vascularity entry in [1] (200 mM, 48 hours) is reported as “increased”. Besides, the “tissue repair as evidenced by histology” value in [1] is recorded as “stimulated tissue repair”. Moreover, in the data set on P. acnes, the “bactericidal against P. acnes” value is reported as “bactericidal” and the “susceptibility of P. acnes” value was “susceptible”. Further, the bacterial burden entry in data set [4] (100 mM, 48 and 96 hours) is reported as “significantly reduced”. Also, the bacterial burden result in [4] (200 mM, 48 and 96 hours) is “significantly reduced”. Also, in [4] (setting [10]), the bacterial burden result is “decreased the bacterial burden”. Also, the “kill of Pseudomonas aeruginosa” value in data set [4] (48 hours) is listed as 10,000 fold. In data set [4], the “dose with most significant decrease of bacteria” value was 100 mM and 200 mM. Also, in data set [4] (topical), the “bactericidal on stripped skin wound” value was “bactericidal”. Besides, in [5], the bacterial burden result is recorded as “decreased the bacterial burden” and the most effective dose is 100 mM. Besides, the “local level of IGF-1” value in the data set on IGF-1 [8] is on record as “decrease”. For the same molecule, the “local level of TGF-β” value with TGF-β is on record as “decrease”. Further, in the data set with EGF [9], the “local level of EGF” value is “decrease”.
For the molecule `CC1(C)S[C@@H]2[C@H](NC(=O)[C@H](N)c3ccc(O)cc3)C(=O)N2[C@H]1C(=O)O` [Amoxicillin, amoxicillin, reference compound], the “effect on Pseudomonas aeruginosa” value in the data set with Pseudomonas aeruginosa is given as “no effect”.
